Experimental data as given in ChEMBL document CHEMBL5325470, “Design, synthesis and mechanism studies of dual EZH2/BRD4 inhibitors for cancer therapy” (Bioorg Med Chem, 2023).
The source made the active and inactive calls. No cut-off for these calls is given here.

Legend:
[1] = target: T1, Bromodomain-containing protein 4 (Homo sapiens, UniProt O60885); experiment: Inhibition of BRD4 in human A549 cells assessed as reduction in c-Myc level at 2 to 8 uM incubated for 48 hrs by Western blotting analysis; type: cell-based; settings: dose 2-8 µM
HCT-116 [2] = experiment: Induction of cell cycle arrest in human HCT-116 cells assessed as accumulation of cells at G0/G1 phase at 2 to 8 uM incubated for 48 hrs by RNAase-A and PI staining based flow cytometry analysis; type: functional; settings: dose 2-8 µM
A549 [3] = experiment: Inhibition of PRC2 in human A549 cells assessed as reduction in H3K27me3 level at 2 to 8 uM incubated for 48 hrs by Western blotting analysis; type: cell-based; settings: dose 2-8 µM
HCT-116 [4] = experiment: Inhibition of PRC2 in human HCT-116 cells assessed as reduction in H3K27me3 level at 2 to 8 uM incubated for 48 hrs by Western blotting analysis; type: cell-based; settings: dose 2-8 µM
[5] = target: T1, Bromodomain-containing protein 4; experiment: Inhibition of BRD4 in human HCT-116 cells assessed as reduction in c-Myc level at 2 to 8 uM incubated for 48 hrs by Western blotting analysis; type: cell-based; settings: dose 2-8 µM
[6] = target: T2, Histone-lysine N-methyltransferase EZH2 (Homo sapiens, UniProt Q15910); experiment: Inhibition of EZH2 in human A549 cells assessed as decrease in H3K27ac level at 18 uM incubated for 48 hrs by Western blotting analysis; type: cell-based
Target sequence in this assay (Q15910 whole entry, looked up): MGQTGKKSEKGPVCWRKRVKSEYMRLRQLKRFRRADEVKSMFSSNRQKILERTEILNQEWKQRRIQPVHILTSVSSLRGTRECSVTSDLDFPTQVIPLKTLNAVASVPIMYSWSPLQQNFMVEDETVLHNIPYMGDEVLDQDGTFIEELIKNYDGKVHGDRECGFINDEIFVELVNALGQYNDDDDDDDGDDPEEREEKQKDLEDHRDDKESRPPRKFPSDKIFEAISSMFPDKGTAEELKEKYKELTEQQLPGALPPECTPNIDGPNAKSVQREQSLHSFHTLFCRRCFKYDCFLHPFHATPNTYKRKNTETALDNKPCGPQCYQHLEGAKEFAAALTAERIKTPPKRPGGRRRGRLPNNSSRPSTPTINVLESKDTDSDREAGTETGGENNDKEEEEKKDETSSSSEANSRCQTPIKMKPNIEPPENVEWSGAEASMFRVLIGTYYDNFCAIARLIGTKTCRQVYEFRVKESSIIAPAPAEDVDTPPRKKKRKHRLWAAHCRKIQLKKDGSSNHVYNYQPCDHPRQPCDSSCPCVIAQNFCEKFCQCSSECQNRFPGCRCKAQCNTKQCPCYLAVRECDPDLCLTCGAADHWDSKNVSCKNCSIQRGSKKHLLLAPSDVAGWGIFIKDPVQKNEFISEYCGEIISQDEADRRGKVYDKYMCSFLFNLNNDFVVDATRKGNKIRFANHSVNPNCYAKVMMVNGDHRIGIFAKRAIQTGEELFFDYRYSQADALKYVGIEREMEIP

BT-549 = experiment: Antiproliferative activity against human BT-549 cells incubated for 72 hrs by MTT assay; type: functional, cell-based; settings: BT-549, 72 h
MDA-MB-231 [7] = experiment: Inhibition of PRC2 in human MDA-MB-231 cells assessed as reduction in H3K27me3 level at 2 to 8 uM incubated for 48 hrs by Western blotting analysis; type: cell-based; settings: dose 2-8 µM
[8] = Binding affinity to recombinant PRC2 complex (unknown origin) incubated for 3 hrs in presence of SAM; parameters: species or system Homo sapiens
[9] = target: T1, Bromodomain-containing protein 4; experiment: Inhibition of BRD4 in human MDA-MB-231 cells assessed as increase in p21 level at 2 to 8 uM incubated for 48 hrs by Western blotting analysis; type: cell-based; settings: dose 2-8 µM
[10] = target: T2, Histone-lysine N-methyltransferase EZH2; experiment: Inhibition of EZH2 in human MDA-MB-231 cells assessed as decrease in H3K27ac level at 12 uM incubated for 48 hrs by Western blotting analysis; type: cell-based
Target sequence in this assay (Q15910 whole entry, looked up): as above

[11] = target: T2, Histone-lysine N-methyltransferase EZH2; experiment: Inhibition of EZH2 in human A549 cells assessed as decrease in H3K27ac level at 2 to 8 uM incubated for 48 hrs by Western blotting analysis; type: cell-based; settings: dose 2-8 µM
Target sequence in this assay (Q15910 whole entry, looked up): as above

[12] = target: T2, Histone-lysine N-methyltransferase EZH2; experiment: Inhibition of EZH2 in human MDA-MB-231 cells assessed as decrease in H3K27ac level at 2 to 8 uM incubated for 48 hrs by Western blotting analysis; type: cell-based; settings: dose 2-8 µM
Target sequence in this assay (Q15910 whole entry, looked up): as above

[13] = target: T2, Histone-lysine N-methyltransferase EZH2; experiment: Inhibition of EZH2 in human HCT-116 cells assessed as decrease in H3K27ac level at 12 uM incubated for 48 hrs by Western blotting analysis; type: cell-based
Target sequence in this assay (Q15910 whole entry, looked up): as above

A549 [14] = experiment: Induction of apoptosis in human A549 cells assessed as […] in Bax protein expression at 2 to 8 uM incubated for 48 hrs by Western blotting analysis; type: functional, cell-based; settings: dose 2-8 µM
[15] = target: T1, Bromodomain-containing protein 4; experiment: Inhibition of BRD4 in human HCT-116 cells assessed as increase in p21 level at 2 to 8 uM incubated for 48 hrs by Western blotting analysis; type: cell-based; settings: dose 2-8 µM
[16] = target: T1, Bromodomain-containing protein 4; experiment: Inhibition of BRD4 in human MDA-MB-231 cells assessed as reduction in c-Myc level at 2 to 8 uM incubated for 48 hrs by Western blotting analysis; type: cell-based; settings: dose 2-8 µM
[17] = target: T1, Bromodomain-containing protein 4; experiment: Inhibition of BRD4 in human A549 cells assessed as increase in p21 level at 2 to 8 uM incubated for 48 hrs by Western blotting analysis; type: cell-based; settings: dose 2-8 µM
[18] = target: T2, Histone-lysine N-methyltransferase EZH2; experiment: Inhibition of EZH2 (unknown origin)
Target sequence in this assay (Q15910 whole entry): as the sequence (Q15910 whole entry, looked up) above

HCT-116 [19] = experiment: Antiproliferative activity against human HCT-116 cells incubated for 72 hrs by MTT assay; type: functional, cell-based; settings: HCT-116, 72 h
[20] = target: T1, Bromodomain-containing protein 4; experiment: Inhibition of BRD4 BD1 (unknown origin) incubated for 15 mins by TR-FRET method
MDA-MB-231 [21] = experiment: Antiproliferative activity against human MDA-MB-231 cells incubated for 72 hrs by MTT assay; type: functional, cell-based; settings: MDA-MB-231, 72 h
A549 [22] = experiment: Antiproliferative activity against human A549 cells incubated for 72 hrs by MTT assay; type: functional, cell-based; settings: A549, 72 h
Cell membrane = experiment: Induction of mitochondrial membrane potential loss in human HCT-116 cells assessed as decrease in red fluorescence incubated for 48 hrs by flow cytometry analysis; settings: Mitochondria, dose 2-8 µM
A549 [23] = experiment: Induction of apoptosis in human A549 cells assessed as reduction in Bcl-2 protein expression at 2 to 8 uM incubated for 48 hrs by Western blotting analysis; type: functional, cell-based; settings: dose 2-8 µM
HCT-116 [24] = experiment: Antiproliferative activity against human HCT-116 cells assessed as reduction in number of colonies incubated for 48 hrs with replacement of normal media every day for 14 days; type: functional, cell-based; settings: dose 2-8 µM
HCT-116 [25] = experiment: Induction of apoptosis in human HCT-116 cells at 2 to 8 uM incubated for 48 hrs by Annexin V-PE/7-AAD staining based flow cytometry analysis; type: functional, cell-based; settings: dose 2-8 µM
[26] = target: T2, Histone-lysine N-methyltransferase EZH2; experiment: Inhibition of EZH2 in human HCT-116 cells assessed as decrease in H3K27ac level at 2 to 8 uM incubated for 48 hrs by Western blotting analysis; type: cell-based; settings: dose 2-8 µM
Target sequence in this assay (Q15910 whole entry, looked up): as above

- inhibition [1]: Active
- inhibition [5]: Active
- inhibition [6]: inactive
- IC50 (BT-549): 3970 nM
- Kd [8]: 180 nM
- inhibition [9]: Active
- inhibition [10]: inactive
- inhibition [11]: Active
- inhibition [12]: Active
- inhibition [13]: inactive
- inhibition [15]: Active
- inhibition [16]: Active
- inhibition [17]: Active
- IC50 [18]: 82 nM
- IC50 (HCT-116 [19]): 1860 nM
- IC50 [20]: 134 nM
- IC50 (MDA-MB-231 [21]): 2310 nM
- IC50 (A549 [22]): 4630 nM
- Activity (Cell membrane): Dose-Dependent Effect
- inhibition [26]: Active
SMILES: Cc1cc(C)c(CNC(=O)c2cc(NCCCCCNC(=O)C[C@@H]3N=C(c4ccc(Cl)cc4)c4c(sc(C)c4C)-n4c(C)nnc43)cc3c2cnn3C(C)C)c(=O)[nH]1
- Activity (HCT-116 [2]): Active
- inhibition (A549 [3]): Active
- inhibition (HCT-116 [4]): Active
- inhibition (MDA-MB-231 [7]): Active
- Activity (A549 [14]): Active
- Activity (A549 [23]): Active
- Activity (HCT-116 [24]): Dose-Dependent Effect
- Activity (HCT-116 [25]): Active
